How the values were obtained:
[1] = target: T1, wild-type ALK2 (aa172-499) (Homo sapiens (Human), UniProt Q04771); assay: ADPGlo biochemical autophosphorylation assay, ALK2; settings: 15 μm ATP, 60 min at 32° C.
ALK3 (aa198-525) = ALK3 (aa198-525) (Homo sapiens (Human), UniProt P36894); assay: ADPGlo biochemical autophosphorylation assay, ALK3; settings: 15 μm ATP, 60 min at 32° C.
[2] = target: T1, wild-type ALK2 (aa172-499); assay: Caliper biochemical peptide phosphorylation assay, ALK2; settings: 15 μm ATP, 60 min at 30° C.; read-out: ALK2 EPK (IC50)
ALK1 (aa166-493) = ALK1 (aa166-493) (Homo sapiens (Human), UniProt P37023); assay: Caliper biochemical peptide phosphorylation assay, ALK1; settings: 15 μm ATP, 60 min at 30° C.; read-out: ALK1 EPK (IC50)
Sequence of ALK1 (aa166-493) (P37023 166-493): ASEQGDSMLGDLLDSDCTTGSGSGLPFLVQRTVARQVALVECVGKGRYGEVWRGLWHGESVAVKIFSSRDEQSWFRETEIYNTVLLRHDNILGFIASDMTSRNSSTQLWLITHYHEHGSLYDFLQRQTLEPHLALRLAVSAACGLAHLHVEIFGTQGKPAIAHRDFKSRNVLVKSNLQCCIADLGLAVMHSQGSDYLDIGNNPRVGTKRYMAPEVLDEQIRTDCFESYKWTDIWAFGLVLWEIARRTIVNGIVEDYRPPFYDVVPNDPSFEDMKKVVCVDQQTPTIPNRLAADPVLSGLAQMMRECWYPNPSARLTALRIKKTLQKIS

ALK5 (aa162-503) = ALK5 (aa162-503) (Homo sapiens (Human), UniProt P36897); assay: Caliper biochemical peptide phosphorylation assay, ALK5; settings: 15 μm ATP, 60 min at 30° C.; read-out: ALK5 EPK (IC50)
Sequence of ALK5 (aa162-503) (P36897 162-503): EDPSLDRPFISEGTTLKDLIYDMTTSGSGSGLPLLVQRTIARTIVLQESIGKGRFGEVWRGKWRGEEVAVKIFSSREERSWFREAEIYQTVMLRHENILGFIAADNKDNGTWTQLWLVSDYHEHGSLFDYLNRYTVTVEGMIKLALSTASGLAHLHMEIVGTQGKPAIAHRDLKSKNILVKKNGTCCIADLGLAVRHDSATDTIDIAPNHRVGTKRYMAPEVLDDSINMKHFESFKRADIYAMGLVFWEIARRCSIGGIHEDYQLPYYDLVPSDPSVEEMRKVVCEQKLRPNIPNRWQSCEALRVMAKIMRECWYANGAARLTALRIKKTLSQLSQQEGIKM

ALK6 (aa168-495) = ALK6 (aa168-495) (Homo sapiens (Human), UniProt O00238); assay: Caliper biochemical peptide phosphorylation assay, ALK6; settings: 15 μm ATP, 60 min at 30° C.; read-out: ALK6 EPK (IC50)
Sequence of ALK6 (aa168-495) (O00238 168-495): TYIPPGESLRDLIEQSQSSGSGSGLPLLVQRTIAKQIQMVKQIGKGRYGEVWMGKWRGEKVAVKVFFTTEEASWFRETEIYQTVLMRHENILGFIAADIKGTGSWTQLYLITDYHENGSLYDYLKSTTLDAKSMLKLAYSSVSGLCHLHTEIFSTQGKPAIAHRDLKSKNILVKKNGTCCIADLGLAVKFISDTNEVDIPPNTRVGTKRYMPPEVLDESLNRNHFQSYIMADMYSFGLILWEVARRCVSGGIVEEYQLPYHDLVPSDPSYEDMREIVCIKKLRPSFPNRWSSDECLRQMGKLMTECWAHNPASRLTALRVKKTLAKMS

[3] = tested on: BMP response element (BRE) luciferase reporter in HuH7 cells, BMP6 stimulated; assay: BMP signaling reporter gene assay; assay type: cell-based; settings: Homo sapiens, Huh-7; HuH7 BRE-luciferase, BMP6 100 ng/ml, 5 hours; read-out: MSD BMP RGA IC50

Sequence of ALK3 (aa198-525) (P36894 198-525): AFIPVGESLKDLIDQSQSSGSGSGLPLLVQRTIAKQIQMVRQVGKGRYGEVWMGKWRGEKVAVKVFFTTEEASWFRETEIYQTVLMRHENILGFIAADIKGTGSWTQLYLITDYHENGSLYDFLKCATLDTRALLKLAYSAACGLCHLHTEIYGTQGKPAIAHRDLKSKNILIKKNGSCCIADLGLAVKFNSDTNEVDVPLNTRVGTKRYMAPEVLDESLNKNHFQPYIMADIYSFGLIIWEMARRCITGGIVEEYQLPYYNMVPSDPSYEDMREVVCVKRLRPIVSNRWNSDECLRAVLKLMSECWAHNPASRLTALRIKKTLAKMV
T1 sequence (Q04771 172-499): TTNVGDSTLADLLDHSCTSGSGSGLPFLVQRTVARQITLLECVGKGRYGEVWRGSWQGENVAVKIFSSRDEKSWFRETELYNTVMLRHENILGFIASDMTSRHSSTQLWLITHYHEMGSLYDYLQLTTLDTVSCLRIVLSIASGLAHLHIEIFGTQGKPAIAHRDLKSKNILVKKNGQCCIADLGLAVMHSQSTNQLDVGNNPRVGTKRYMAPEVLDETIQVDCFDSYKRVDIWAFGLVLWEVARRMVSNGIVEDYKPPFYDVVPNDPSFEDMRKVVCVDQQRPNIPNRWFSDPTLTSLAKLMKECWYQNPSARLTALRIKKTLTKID

IC50 [1] [µM] | IC50 (ALK3 (aa198-525)) [µM] | IC50 [2] [µM] | IC50 (ALK1 (aa166-493)) [µM] | IC50 (ALK5 (aa162-503)) [µM] | IC50 (ALK6 (aa168-495)) [µM] | IC50 [3] [µM] | Compound
0.012 | 1.77 | 0.011 | 0.093 | 2.17 | 2.5 | 0.021 | CC(C)N1C[C@H]2C[C@@]2(c2ccc(-c3cnc(N)c(C(=O)N[C@H]4CC[C@H](O)CC4)c3)cc2)C1 [Example 2, 2-amino-N-((1r,4R)-4-hydroxycyclohexyl)-5-(4-((1R,5S)-3-isopropyl-3-azabicyclo[3.1.0]hexan-1-yl)phenyl)nicotinamide]
0.012 | 1.05 | 0.011 | 0.136 | 2.13 | 1.73 | 0.062 | C[C@H](c1ccc(-c2cnc(N)c(C(=O)N[C@H]3CC[C@H](O)CC3)c2)cc1)N1CC2(COC2)C1 [Example 3, 5-(4-((R)-1-(2-oxa-6-azaspiro[3.3]heptan-6-yl)ethyl)phenyl)-2-amino-N-((1r,4R)-4-hydroxycyclohexyl)nicotinamide]
0.005 | 0.83 | 0.013 | 0.175 | 2.45 | 1.85 | 0.108 | C[C@@H](c1ccc(-c2cnc(N)c(C(=O)N[C@H]3CC[C@H](O)CC3)c2)cc1)N1CC2(COC2)C1 [Example 4, 5-(4-((S)-1-(2-oxa-6-azaspiro[3.3]heptan-6-yl)ethyl)phenyl)-2-amino-N-((1r,4R)-4-hydroxycyclohexyl)nicotinamide]
0.007 | 1.1 | 0.01 | 0.081 | 2.2 | 2.5 | 0.12 | Nc1ncc(-c2ccc([C@]34C[C@H]3CN(CCCN3CCOCC3)C4)cc2)cc1C(=O)N[C@H]1CC[C@H](O)CC1 [Example 5, 2-amino-N-((1r,4S)-4-hydroxycyclohexyl)-5-(4-((1S,5R)-3-(3-morpholinopropyl)-3-azabicyclo[3.1.0]hexan-1-yl)phenyl)nicotinamide]
0.018 | 0.94 | 0.015 | 0.22 | 10 | 5.2 | 0.87 | Nc1ncc(-c2ccc([C@@]34C[C@@H]3CN(C(CF)CF)C4)cc2)cc1C(=O)N[C@H]1CC[C@H](O)CC1 [Example 6, 2-amino-5-(4-((1R,5S)-3-(1,3-difluoropropan-2-yl)-3-azabicyclo[3.1.0]hexan-1-yl)phenyl)-N-((1r,4R)-4-hydroxycyclohexyl)nicotinamide]
0.024 | 14.6 | 0.025 |  | 10 | 10 |  | C[C@@H]1CCCN1Cc1ccc(-c2cnc(N)c(C(=O)N[C@H]3CC[C@](C)(O)CC3)c2)cc1F [Example 46, 2-amino-5-(3-fluoro-4-(((R)-2-methylpyrrolidin-1-yl)methyl)phenyl)-N-((1r,4R)-4-hydroxy-4-methylcyclohexyl)nicotinamide]

Compound | IC50 [1] [µM] | IC50 (ALK3 (aa198-525)) [µM] | IC50 [2] [µM] | IC50 (ALK1 (aa166-493)) [µM] | IC50 (ALK5 (aa162-503)) [µM] | IC50 (ALK6 (aa168-495)) [µM] | IC50 [3] [µM]
CS(=O)(=O)N1CCC(N2C[C@H]3C[C@@]3(c3ccc(-c4cnc(N)c(C(=O)N[C@H]5CC[C@H](O)CC5)c4)cc3)C2)CC1 [Example 1, 2-amino-N-((1r,4R)-4-hydroxycyclohexyl)-5-(4-((1R,5S)-3-(1-(methylsulfonyl)piperidin-4-yl)-3-azabicyclo[3.1.0]hexan-1-yl)phenyl)nicotinamide] | 0.005 | 0.31 | 0.009 | 0.075 | 0.56 | 0.74 | 0.076
Nc1ncc(-c2ccc([C@]34C[C@H]3CN(C3CCOCC3)C4)cc2)cc1C(=O)N[C@H]1CC[C@H](O)CC1 [Example 33] | 0.01 |  | 0.02 | 0.22 |  | 2 | 0.026
